# Source: patent US8309718B2, “4-pyrazolyl-N-arylpyrimidin-2-amines and 4-pyrazolyl-N-heteroarylpyrimidin-2-amines as janus kinase inhibitors” (Incyte Corporation, priority 2007, dated 2012)
# Target: T1, human JAK2 (Homo sapiens, UniProt O60674)
# T1 construct: JAK2 (a.a. 828-1132); His tag (N); made in house; host or cells: insect cells (baculovirus)
# Assay: In vitro JAK kinase assay (HTRF, phosphorylation of biotinylated peptide)
# Type: biochemical
# Details: catalytic domain a.a. 828-1132, 30 μM ATP, 500 nM peptide, room temperature 1 hr; read-out: JAK-2 IC50
# Method in brief: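 His-tagged human JAK2 catalytic domain (a.a. 828-1132), baculovirus/insect-cell expressed; phosphorylation of 500 nM biotinylated peptide at 30 μM ATP in 50 mM Tris pH 7.8, 100 mM NaCl, 5 mM DTT, 0.01% BSA. 1 h at room temperature, EDTA stop, HTRF read (Eu-Py20/SA-APC); IC50.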
# T1 sequence (O60674 828-1132): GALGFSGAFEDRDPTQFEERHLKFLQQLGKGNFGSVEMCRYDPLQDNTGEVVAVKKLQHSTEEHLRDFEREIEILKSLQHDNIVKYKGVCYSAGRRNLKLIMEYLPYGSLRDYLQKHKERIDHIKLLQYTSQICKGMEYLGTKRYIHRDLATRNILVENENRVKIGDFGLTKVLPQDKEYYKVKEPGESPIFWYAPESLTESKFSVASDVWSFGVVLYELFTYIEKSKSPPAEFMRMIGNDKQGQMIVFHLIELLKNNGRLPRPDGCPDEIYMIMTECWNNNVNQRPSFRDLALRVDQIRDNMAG
row,IC50 [nM],Compound
1,< 100,"COc1cnc(Nc2cccc(C(=O)N3[C@@H]4CC[C@H]3C[C@@H](O)C4)c2)nc1-c1cnn(C(CC#N)C2CC2)c1 (mixture of isomers) [Example 332, 3-cyclopropyl-3-(4-{2-[(3-{[(3-endo)-3-hydroxy-8-azabicyclo[3.2.1]oct-8-yl]carbonyl}phenyl)amino]-5-methoxypyrimidin-4-yl}-1H-pyrazol-1-yl)propanenitrile]"
2,< 100,"COc1cnc(Nc2cccc(C(=O)NCc3cc(C)on3)c2)nc1-c1cnn(C(CC#N)C2CC2)c1 (racemic) [Example 333, 3-({4-[1-(2-cyano-1-cyclopropylethyl)-1H-pyrazol-4-yl]-5-methoxypyrimidin-2-yl}amino)-N-[(5-methylisoxazol-3-yl)methyl]benzamide]"
3,< 100,"COc1cnc(Nc2cccc(C(=O)N3CCC3)c2)nc1-c1cnn(C(CC#N)C2CC2)c1 (racemic) [Example 334, 3-[4-(2-{[3-(azetidin-1-ylcarbonyl)phenyl]amino}-5-methoxypyrimidin-4-yl)-1H-pyrazol-1-yl]-3-cyclopropylpropanenitrile]"
4,< 100,"COc1cnc(Nc2cccc(N3CCCS3(=O)=O)c2)nc1-c1cnn(C(CC#N)C2CC2)c1 (racemic) [Example 346, 3-cyclopropyl-3-[4-(2-{[3-(1,1-dioxidoisothiazolidin-2-yl)phenyl]amino}-5-methoxypyrimidin-4-yl)-1H-pyrazol-1-yl]propanenitrile]"
5,< 100,"COc1cnc(Nc2cccnc2)nc1-c1cnn(C(CC#N)CC2CCN(C(=O)c3ccc(F)cc3F)CC2)c1 (racemic) [Example 347, 4-[1-(2,4-difluorobenzoyl)piperidin-4-yl]-3-{4-[5-methoxy-2-(pyridin-3-ylamino)pyrimidin-4-yl]-1H-pyrazol-1-yl}butanenitrile]"
6,< 100,"Cc1cc(OC2CCC(CC#N)(n3cc(-c4ccnc(Nc5ccc(N6CCOCC6)cc5)n4)cn3)CC2)no1 (single isomer, unassigned) [Example 212, 2-(4-(5-methylisoxazol-3-yloxy)-1-(4-(2-(4-morpholinophenylamino)pyrimidin-4-yl)-1H-pyrazol-1-yl)cyclohexyl)acetonitrile]"
7,< 100,"CC1(C)NC(=O)O[C@]12CCN(C(=O)c1ccc(Nc3nccc(-c4cnn(C(CC#N)C5CCCC5)c4)n3)cc1)C2 (single isomer, unassigned) [Example 219, 3-cyclopentyl-3-(4-(2-(4-((S*)-4,4-dimethyl-2-oxo-1-oxa-3,7-diazaspiro[4.4]nonane-7-carbonyl)phenylamino)pyrimidin-4-yl)-1H-pyrazol-1-yl)propanenitrile]"
8,< 100,"Cc1cc(OC2CCC(CC#N)(n3cc(-c4ccnc(Nc5ccc(N6CCOCC6=O)cc5)n4)cn3)CC2)no1 (single isomer, unassigned) [Example 244, 2-(4-(5-methylisoxazol-3-yloxy)-1-(4-(2-(4-(3-oxomorpholino)phenylamino)pyrimidin-4-yl)-1H-pyrazol-1-yl)cyclohexyl)acetonitrile]"
9,< 100,"Cc1cc(OC2CCC(CC#N)(n3cc(-c4ccnc(Nc5ccc(N6CCCCC6=O)cc5)n4)cn3)CC2)no1 (single isomer, unassigned) [Example 245, 2-(4-(5-methylisoxazol-3-yloxy)-1-(4-(2-(4-(2-oxopiperidin-1-yl)phenylamino)pyrimidin-4-yl)-1H-pyrazol-1-yl)cyclohexyl)acetonitrile]"
10,< 100,"Cc1cc(OC2CCC(CC#N)(n3cc(-c4ccnc(Nc5ccc(-n6cccn6)cc5)n4)cn3)CC2)no1 (single isomer, unassigned) [Example 246, 2-(1-(4-(2-(4-(1H-pyrazol-1-yl)phenylamino)pyrimidin-4-yl)-1H-pyrazol-1-yl)-4-(5-methylisoxazol-3-yloxy)cyclohexyl)acetonitrile]"
11,< 100,"Cc1cc(OC2CCC(CC#N)(n3cc(-c4ccnc(Nc5cccc(-c6cnco6)c5)n4)cn3)CC2)no1 (single isomer, unassigned) [Example 247, 2-(4-(5-methylisoxazol-3-yloxy)-1-(4-(2-(3-(oxazol-5-yl)phenylamino)pyrimidin-4-yl)-1H-pyrazol-1-yl)cyclohexyl)acetonitrile]"
12,< 100,"N#CCC1(n2cc(-c3ccnc(Nc4ccc(N5CCOCC5)cc4)n3)cn2)CC(C#N)C1 (single isomer, unassigned) [Example 248, 3-(cyanomethyl)-3-(4-(2-(4-morpholinophenylamino)pyrimidin-4-yl)-1H-pyrazol-1-yl)cyclobutanecarbonitrile]"
13,< 100,"N#CCC1(n2cc(-c3ccnc(Nc4ccc(C(=O)N5CCOCC5)cc4)n3)cn2)CC(C#N)C1 (single isomer, unassigned) [Example 287, 3-(cyanomethyl)-3-(4-(2-(4-(morpholine-4-carbonyl)phenylamino)pyrimidin-4-yl)-1H-pyrazol-1-yl)cyclobutanecarbonitrile]"
14,< 100,"N#CCC1(n2cc(-c3ccnc(Nc4ccc(C(=O)N5CCCC5)cc4)n3)cn2)CC(C#N)C1 (single isomer, unassigned) [Example 288, 3-(cyanomethyl)-3-(4-(2-(4-(pyrrolidine-1-carbonyl)phenylamino)pyrimidin-4-yl)-1H-pyrazol-1-yl)cyclobutanecarbonitrile]"
15,< 100,"N#CCC1(n2cc(-c3ccnc(Nc4ccc(C(=O)NC5CCOCC5)cc4)n3)cn2)CC(C#N)C1 (single isomer, unassigned) [Example 289, 4-(4-(1-(3-cyano-1-(cyanomethyl)cyclobutyl)-1H-pyrazol-4-yl)pyrimidin-2-ylamino)-N-(tetrahydro-2H-pyran-4-yl)benzamide]"
16,< 100,"N#CCC1(n2cc(-c3ccnc(Nc4ccc(C(=O)N5CC[C@@H](O)C5)cc4)n3)cn2)CC(C#N)C1 (single isomer, unassigned) [Example 290]"
17,< 100,"Cc1cc(CNC(=O)c2ccc(Nc3nccc(-c4cnn(C5(CC#N)CC(C#N)C5)c4)n3)cc2)no1 (single isomer, unassigned) [Example 291, 4-(4-(1-(3-cyano-1-(cyanomethyl)cyclobutyl)-1H-pyrazol-4-yl)pyrimidin-2-ylamino)-N-((5-methylisoxazol-3-yl)methyl)benzamide]"
18,< 100,"N#CCC1(n2cc(-c3ccnc(Nc4ccc(C(=O)N5CCC5)cc4)n3)cn2)CC(C#N)C1 (single isomer, unassigned) [Example 292, 3-(4-(2-(4-(azetidine-1-carbonyl)phenylamino)pyrimidin-4-yl)-1H-pyrazol-1-yl)-3-(cyanomethyl)cyclobutanecarbonitrile]"
19,< 100,"CN1CCN(C(=O)c2ccc(Nc3nccc(-c4cnn(C5(CC#N)CC(C#N)C5)c4)n3)cc2)CC1 (single isomer, unassigned) [Example 293, 3-(cyanomethyl)-3-(4-(2-(4-(4-methylpiperazine-1-carbonyl)phenylamino)pyrimidin-4-yl)-1H-pyrazol-1-yl)cyclobutanecarbonitrile]"
20,< 100,"N#CCC1(n2cc(-c3ccnc(Nc4ccc(C(=O)N5CC[C@H](F)C5)cc4)n3)cn2)CC(C#N)C1 (single isomer, unassigned) [Example 294]"
21,< 100,"COC1CCN(C(=O)c2ccc(Nc3nccc(-c4cnn(C5(CC#N)CC(C#N)C5)c4)n3)cc2)CC1 (single isomer, unassigned) [Example 295, 3-(cyanomethyl)-3-(4-(2-(4-(4-methoxypiperidine-1-carbonyl)phenylamino)pyrimidin-4-yl)-1H-pyrazol-1-yl)cyclobutanecarbonitrile]"
